Measurements as given in publication PMC6204753, “Non-native autoinducer analogs capable of modulating the SdiA quorum sensing receptor in Salmonella enterica serovar Typhimurium” (Beilstein Journal of Organic Chemistry, 2018).

Biological target: SdiA (Salmonella enterica subsp. enterica serovar Typhimurium, UniProt O66040)
Assay: S. Typhimurium-pJNS25 SdiA reporter, competitive antagonism against 10 nM L-OOHL
Format: cell-based
Settings: average ± STD, change in activity from 10 nM 2 (OOHL); for Antagonism 1 μM Inhibition (%): 1 μM compound; for Antagonism 100 μM Inhibition (%): 100 μM compound
Text: Biological assays for SdiA activity. Cell-based reporter strains that rely on detecting the transcriptional activity of LuxR-type receptors are commonly used to assess the activity of exogenous ligands. We used the S. Typhimurium-pJNS25 reporter strain constructed by Smith and Ahmer and also used by Janssens et al. to examine SdiA activity. This strain naturally produces SdiA and contains a reporter plasmid with the promoter region for srgE fused to the luxABCDE operon of V. fischeri (see Experimental section for details of all strains and plasmids). SdiA activity is thus reported by the production of luciferase and resulting bioluminescence. We also prepared an SdiA reporter in E. coli (JLD271-pJN105SE-pSC11SE) to examine S. Typhimurium SdiA activity in an alternate background and with a different reporter gene output. […] This reporter construct uses an arabinose inducible promoter to produce S. Typhimurium SdiA and the promoter region for srgE fused to lacZ to report SdiA activity. SdiA activity is then measured using standard β-galactosidase assays. In both reporter strains, signal was normalized to the difference between the positive control (10 μM OOHL) and the negative control (1% DMSO; no compound).
Salmonella SdiA reporter assay. S. Typhimurium-pJNS25 was grown 16–18 h overnight in LB, diluted 1:100 in fresh LB medium, and then incubated for 6 h at 37 °C with shaking at 200 rpm in the presence of compounds (1% DMSO). […] All compounds were screened at 100 μM and 1 μM in triplicate in agonism and antagonism assays. […] Dose–response analyses were performed by preparing dilutions of compounds in DMSO and testing each concentration in the agonism or antagonism assays. Competition dose–response assays (data in Figure 5) were performed in the same manner as the antagonism assays, except instead of OOHL being added to the subculture, the antagonist being tested was added. Non-linear regression curve fits were generated using GraphPad Prism software (version 6) using variable slope (four parameter) dose–response analysis.

SdiA, sequence (O66040 entry or part of it): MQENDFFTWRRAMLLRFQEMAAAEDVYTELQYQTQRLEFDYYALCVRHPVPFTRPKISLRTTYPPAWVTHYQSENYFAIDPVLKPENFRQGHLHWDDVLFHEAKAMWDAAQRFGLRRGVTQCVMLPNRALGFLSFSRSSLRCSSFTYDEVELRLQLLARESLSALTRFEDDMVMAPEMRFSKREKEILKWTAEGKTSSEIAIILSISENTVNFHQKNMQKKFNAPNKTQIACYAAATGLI

Row | Compound | Antagonism 1 μM Inhibition (%) | Antagonism 100 μM Inhibition (%)
1 | O=C(N[C@H]1CCOC1=O)c1ccccc1Br [Q1] | 2 ± 5 | -3 ± 18
2 | O=C(Cc1cccc([N+](=O)[O-])c1)NC1CCCC1 [F18] | 4 ± 6 | 15 ± 3
3 | CCCCCOc1ccc(C(=O)N[C@H]2CCOC2=O)cc1 [R5] | 10 ± 18 | -1 ± 9
4 | Nc1ccc(CC(=O)N[C@H]2CCOC2=O)cc1 [C21] | 4 ± 12 | 13 ± 4
5 | CCOc1ccc(CC(=O)N[C@H]2CCOC2=O)cc1 [C25] | 12 ± 8 | 7 ± 5
6 | O=C(COc1cccc([N+](=O)[O-])c1)N[C@H]1CCOC1=O [E25] | 5 ± 18 | 9 ± 12
7 | O=C(Cc1ccc(Br)cc1)N[C@H]1CCSC1=O [F10] | 8 ± 12 | -3 ± 7
8 | CCCCCCCCCC(=O)CC(=O)Nc1cccc(OC)c1 [compound 14, reference compound] | 22 ± 19 | 12 ± 8
9 | CCCCCCCCCC(=O)CC(=O)N[C@H]1CCOC1=O [compound 1, reference compound] | 2 ± 17 | 15 ± 16
10 | O=C(N[C@H]1CCOC1=O)c1cccc(Br)c1 [Q2] | 17 ± 2 | 9 ± 13
11 | O=C(CC(=O)N[C@H]1CCOC1=O)Cc1ccccc1 [compound 5, reference compound] | 23 ± 9 | 17 ± 3
12 | O=C(Cc1ccc(F)cc1)N[C@H]1CCOC1=O [C2] | 2 ± 8 | -8 ± 18
13 | O=C(CCc1cccs1)N[C@H]1CCOC1=O [D3] | 10 ± 2 | 6 ± 9
14 | N#Cc1ccc(CC(=O)N[C@H]2CCOC2=O)cc1 [E4] | 12 ± 6 | -17 ± 18
15 | Cc1ccc(C(=O)CCC(=O)N[C@H]2CCOC2=O)cc1 [D6] | 21 ± 19 | 3 ± 12
16 | O=C(N[C@H]1CCOC1=O)C1CCCC1 [S4] | 27 ± 11 | -8 ± 11
17 | O=C(Cc1ccccc1I)N[C@H]1CCOC1=O [C12] | 9 ± 13 | -24 ± 12
18 | CCCC(=O)CC(=O)N[C@H]1CCOC1=O [compound 3, reference compound] | 6 ± 16 | 20 ± 2
19 | O=C(CCc1c[nH]c2ccccc12)N[C@H]1CCOC1=O [B14] | 10 ± 2 | 18 ± 5
20 | O=C(CCCOc1ccc(Cl)cc1)N[C@H]1CCOC1=O [compound 10, reference compound] | 9 ± 12 | 5 ± 15
21 | O=C(Cc1ccccc1F)N[C@H]1CCOC1=O [C4] | 3 ± 6 | -31 ± 10
22 | O=C(CCc1cccc([N+](=O)[O-])c1)N[C@H]1CCOC1=O [E38] | 15 ± 11 | 32 ± 6
23 | CCCCCS(=O)(=O)N[C@H]1CCOC1=O [A9] | 10 ± 9 | 13 ± 2
24 | CC(C)(C)OC(=O)Nc1ccc(C(=O)N[C@H]2CCOC2=O)cc1 [Q13] | 19 ± 8 | -14 ± 2
25 | CCCOc1ccc(C(=O)N[C@H]2CCOC2=O)cc1 [R2] | 16 ± 9 | 11 ± 6
26 | O=C(Cc1cc(C(F)(F)F)cc(C(F)(F)F)c1)N[C@H]1CCOC1=O [E9] | 18 ± 8 | 21 ± 8
27 | Cc1ccc(C(=O)N[C@H]2CCOC2=O)cc1 [Q8] | 17 ± 3 | 11 ± 3
